Assay results published in PubChem BioAssay (NCI).
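Five compound concentrations were applied to cells in 96-well plates for 48 hours; endpoints were derived by simple linear interpolation of the resulting dose-response curve. TGI is the concentration that stops growth completely.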

Experiments:
Experiment in all cases: growth of human tumour cells (NCI), 48 h
786-0 renal = system: 786-0 renal
A498 renal = system: A498 renal
A549 NSCLC = system: A549 NSCLC
ACHN renal = system: ACHN renal
BT-549 breast = system: BT-549 breast
CAKI-1 renal = system: CAKI-1 renal
CCRF-CEM leukemia = system: CCRF-CEM leukemia
COLO 205 colon = system: COLO 205 colon
DU-145 prostate = system: DU-145 prostate
EKVX NSCLC = system: EKVX NSCLC
HCC-2998 colon = system: HCC-2998 colon
HCT-116 colon = system: HCT-116 colon
HCT-15 colon = system: HCT-15 colon
HL-60(TB) leukemia = system: HL-60(TB) leukemia
HOP-62 NSCLC = system: HOP-62 NSCLC
HOP-92 NSCLC = system: HOP-92 NSCLC
HS 578T breast = system: HS 578T breast
HT29 colon = system: HT29 colon
IGROV1 ovarian = system: IGROV1 ovarian
K-562 leukemia = system: K-562 leukemia
KM12 colon = system: KM12 colon
LOX IMVI melanoma = system: LOX IMVI melanoma
M14 melanoma = system: M14 melanoma
MALME-3M melanoma = system: MALME-3M melanoma
MCF7 breast = system: MCF7 breast
MDA-MB-231 breast = system: MDA-MB-231 breast
MDA-MB-435 = system: MDA-MB-435
MDA-N = system: MDA-N
MOLT-4 leukemia = system: MOLT-4 leukemia
NCI-H226 lung = system: NCI-H226 lung
NCI-H23 lung = system: NCI-H23 lung
NCI-H460 lung = system: NCI-H460 lung
NCI-H522 lung = system: NCI-H522 lung
NCI/ADR-RES ovarian = system: NCI/ADR-RES ovarian
OVCAR-3 ovarian = system: OVCAR-3 ovarian
OVCAR-4 ovarian = system: OVCAR-4 ovarian
OVCAR-5 ovarian = system: OVCAR-5 ovarian
OVCAR-8 ovarian = system: OVCAR-8 ovarian
PC-3 prostate = system: PC-3 prostate
RPMI-8226 leukemia = system: RPMI-8226 leukemia
RXF 393 renal = system: RXF 393 renal
SF-268 CNS = system: SF-268 CNS
SF-295 CNS = system: SF-295 CNS
SF-539 CNS = system: SF-539 CNS
SK-MEL-2 melanoma = system: SK-MEL-2 melanoma
SK-MEL-28 melanoma = system: SK-MEL-28 melanoma
SK-MEL-5 melanoma = system: SK-MEL-5 melanoma
SK-OV-3 ovarian = system: SK-OV-3 ovarian
SN12C renal = system: SN12C renal
SNB-19 CNS = system: SNB-19 CNS
SNB-75 CNS = system: SNB-75 CNS
SR leukemia = system: SR leukemia
SW-620 colon = system: SW-620 colon
T-47D breast = system: T-47D breast
TK-10 renal = system: TK-10 renal
U251 CNS = system: U251 CNS
UACC-257 melanoma = system: UACC-257 melanoma
UACC-62 melanoma = system: UACC-62 melanoma
UO-31 renal = system: UO-31 renal

## C=C1c2nc3ccccc3n2C=C(c2ccc(OC)cc2)N1c1ccccc1
786-0 renal
  TGI: > 100 µM
A498 renal
  TGI: > 100 µM
A549 NSCLC
  TGI: > 100 µM
ACHN renal
  TGI: > 100 µM
BT-549 breast
  TGI: 71 µM
CAKI-1 renal
  TGI: > 100 µM
CCRF-CEM leukemia
  TGI: > 57.9 µM
COLO 205 colon
  TGI: > 70.9 µM
DU-145 prostate
  TGI: > 100 µM
EKVX NSCLC
  TGI: > 100 µM
HCC-2998 colon
  TGI: 39.8 µM
HCT-116 colon
  TGI: > 100 µM
HCT-15 colon
  TGI: > 56.8 µM
HL-60(TB) leukemia
  TGI: 7.93 µM
HOP-62 NSCLC
  TGI: > 100 µM
HOP-92 NSCLC
  TGI: > 100 µM
HS 578T breast
  TGI: > 96.6 µM
HT29 colon
  TGI: 26.7 µM
IGROV1 ovarian
  TGI: > 100 µM
K-562 leukemia
  TGI: > 100 µM
KM12 colon
  TGI: > 47.2 µM
LOX IMVI melanoma
  TGI: > 100 µM
M14 melanoma
  TGI: > 60.4 µM
MALME-3M melanoma
  TGI: 49.8 µM
MCF7 breast
  TGI: > 63.5 µM
MDA-MB-231 breast
  TGI: > 100 µM
MDA-MB-435
  TGI: 4.83 µM
MDA-N
  TGI: 8.56 µM
MOLT-4 leukemia
  TGI: > 55.9 µM
NCI-H226 lung
  TGI: 22.6 µM
NCI-H23 lung
  TGI: 98.5 µM
NCI-H460 lung
  TGI: > 34.5 µM
NCI-H522 lung
  TGI: 27.2 µM
NCI/ADR-RES ovarian
  TGI: 9.64 µM
OVCAR-3 ovarian
  TGI: 98 µM
OVCAR-4 ovarian
  TGI: > 100 µM
OVCAR-5 ovarian
  TGI: > 100 µM
OVCAR-8 ovarian
  TGI: > 69.3 µM
PC-3 prostate
  TGI: > 100 µM
RPMI-8226 leukemia
  TGI: 45.1 µM
RXF 393 renal
  TGI: > 76.1 µM
SF-268 CNS
  TGI: > 100 µM
SF-295 CNS
  TGI: > 55.6 µM
SF-539 CNS
  TGI: > 91.2 µM
SK-MEL-2 melanoma
  TGI: 42.4 µM
SK-MEL-28 melanoma
  TGI: > 96.7 µM
SK-MEL-5 melanoma
  TGI: 42.2 µM
SK-OV-3 ovarian
  TGI: > 100 µM
SN12C renal
  TGI: > 100 µM
SNB-19 CNS
  TGI: 48.3 µM
SNB-75 CNS
  TGI: 58.3 µM
SR leukemia
  TGI: > 24.5 µM
SW-620 colon
  TGI: > 65.4 µM
T-47D breast
  TGI: 98.3 µM
TK-10 renal
  TGI: > 100 µM
U251 CNS
  TGI: > 100 µM
UACC-257 melanoma
  TGI: > 100 µM
UACC-62 melanoma
  TGI: > 57.6 µM
UO-31 renal
  TGI: > 91.3 µM

## Nc1cccc(C2CCCc3c2[nH]c2ccccc32)c1 (stereo not drawn)
786-0 renal
  TGI: 41.5 µM
A498 renal
  TGI: 28.9 µM
A549 NSCLC
  TGI: 47.7 µM
ACHN renal
  TGI: 76.8 µM
BT-549 breast
  TGI: 41.9 µM
CAKI-1 renal
  TGI: 69.2 µM
CCRF-CEM leukemia
  TGI: 57 µM
COLO 205 colon
  TGI: 43.6 µM
DU-145 prostate
  TGI: > 100 µM
EKVX NSCLC
  TGI: 67.5 µM
HCC-2998 colon
  TGI: 61 µM
HCT-116 colon
  TGI: 34 µM
HCT-15 colon
  TGI: 40.5 µM
HL-60(TB) leukemia
  TGI: 43 µM
HOP-62 NSCLC
  TGI: > 100 µM
HOP-92 NSCLC
  TGI: 42.7 µM
HS 578T breast
  TGI: 43.7 µM
HT29 colon
  TGI: 33.4 µM
IGROV1 ovarian
  TGI: 39.8 µM
K-562 leukemia
  TGI: 48.7 µM
KM12 colon
  TGI: 49.8 µM
LOX IMVI melanoma
  TGI: 25.4 µM
M14 melanoma
  TGI: 62.4 µM
MALME-3M melanoma
  TGI: 48.3 µM
MCF7 breast
  TGI: 54.7 µM
MDA-MB-231 breast
  TGI: 37 µM
MDA-MB-435
  TGI: 41.1 µM
MDA-N
  TGI: 37.4 µM
MOLT-4 leukemia
  TGI: 54.1 µM
NCI-H226 lung
  TGI: 47.9 µM
NCI-H23 lung
  TGI: 46.4 µM
NCI-H460 lung
  TGI: 73.6 µM
NCI-H522 lung
  TGI: 34.1 µM
NCI/ADR-RES ovarian
  TGI: 38.8 µM
OVCAR-3 ovarian
  TGI: > 100 µM
OVCAR-4 ovarian
  TGI: > 100 µM
OVCAR-5 ovarian
  TGI: 45.8 µM
OVCAR-8 ovarian
  TGI: 34.8 µM
PC-3 prostate
  TGI: 53.9 µM
RPMI-8226 leukemia
  TGI: 56.6 µM
RXF 393 renal
  TGI: 39.3 µM
SF-268 CNS
  TGI: 56.4 µM
SF-295 CNS
  TGI: 64.5 µM
SF-539 CNS
  TGI: 40.6 µM
SK-MEL-2 melanoma
  TGI: 37.8 µM
SK-MEL-28 melanoma
  TGI: > 100 µM
SK-MEL-5 melanoma
  TGI: 33.1 µM
SK-OV-3 ovarian
  TGI: 70.4 µM
SN12C renal
  TGI: 32.7 µM
SNB-19 CNS
  TGI: 72.7 µM
SNB-75 CNS
  TGI: 36.1 µM
SR leukemia
  TGI: 31.4 µM
SW-620 colon
  TGI: 42.6 µM
T-47D breast
  TGI: 54.7 µM
TK-10 renal
  TGI: > 100 µM
U251 CNS
  TGI: 28.9 µM
UACC-257 melanoma
  TGI: 69.1 µM
UACC-62 melanoma
  TGI: 31.1 µM
UO-31 renal
  TGI: > 100 µM
